Reference: US20250115581A1, “SUBSTITUTED PIPERIDINES AS CK1A DEGRADERS” (Monte Rosa Therapeutics, Inc., priority 2022, published 2025)

What was measured:
CK1α = molecular target: T1, CK1α (Homo sapiens, UniProt P48729+Q96SW2); assay: CK1α NanoBit Assay (HiBiT-tagged CSNK1A1 in HEK293 cells, luminescence); assay type: cell-based; details: 24 h
T1 construct: HEK293 clonal lines with CRISPR KI HiBiT tag on CSNK1A1; host or cells: HEK293 clonal line, CRISPR knock-in HiBiT at the CSNK1A1 locus, stably expressing LgBiT
Protocol: HEK293 clonal lines with CRISPR KI HiBiT tag on CSNK1A1 and stably expressing LgBiT protein were obtained from Promega (Madison, WI). Cells were plated at 5000 cells per well using Multiflo (BioTek) in 384-well white solid bottom plates (Corning, 3570BC) in 25 μl volume in DMEM media (DMEM, high glucose, HEPES, no phenol red (ThermoFisher Scientific, 21063029)) containing 10% FBS (Corning, 35-075-CV), 1% Penicillin/Streptomycin ((ThermoFisher Scientific, 15140-122), and 0.2% Endurazine (Nano-Glo Endurazine Live Cell Substrate (Promega, N2571)). Cells were incubated for 16 hours at 37° C., 5% CO2. Depending on experiment 25 or 75 nL of a compound at 10 mM were added into the plate using an Echo® 650 liquid handler (Labcyte) to achieve final concentration of 10 or 30 μM in wells. Cells were incubated at 37° C., 5% CO2 for 24 hours and then signal was read on a Pherastar FSX using “LUM plus” optic module.
Data analysis was performed in Scinamic (Scinamic, Cambridge, MA). Luminescence response (R) was calculated by the formula: response=100*(S−N)/(P−N) where S is the signal of the well, N and P the mean negative and positive control values respectively of the same plate. The luminescence response was then fitted in Scinamic using a 3-parameter agonist logistic fit (hillslope=1, EC50>0, top/bottom unconstrained).
DC50 data are reported in Table 2 for compounds in Table 1. In Table 2 below, According to the code, A represents a DC50 value of ≤0.1 μM, B represents a DC50 value >0.1 μM and ≤1 μM, C represents an DC50 value >1 μM.

CRBN/DDB1 = CRBN/DDB1 (Homo sapiens, UniProt Q96SW2); assay: HTRF binding assay (displacement of Cy5-thalidomide probe from CRBN/DDB1); details: CRBN/DDB1 2.5 nM, Cy5-Thalidomide 100 nM, 30 min; geometric mean; read-out: HTRF_Thali_Disp_DR_geo_IC50
Source text: Binding of test compounds to CRBN/DDB1 was monitored in an HTRF assay using 1-[5-({2-[2-(2-{[2-(2,6-dioxopiperidin-3-yl)-1,3-dioxo-2,3-dihydro-1H-isoindol-4-yl]oxy}acetamido)ethoxy]ethyl}carbamoyl)pentyl]-3,3-dimethyl-2-[(1E,3E)-5-[(2E)-1,3,3-trimethyl-5-sulfo-2,3-dihydro-1H-indol-2-ylidene]penta-1,3-dien-1-yl]-3H-indol-1-ium-5-sulfonate as a fluorescent probe. In this assay, compounds displace the fluorescently labeled thalidomide-based probe bound to CRBN and fluorescence is monitored with increasing compound concentration. Assays were conducted in Greiner white 384 well HiBase plates (Cat. No 784075-25) in 10 μL total volume. A one pot detection solution of CRBN/DDB1 (2.5 nM), anti-His Terbium Cryptate Gold (1×, PerkinElmer Cat. #: 61HI2TLB), and Cy5-Thalidomide (100 nM, Tenova Cat.: T52461) was prepared in 20 mM HEPES, 20 mM NaCl, 0.2 mM TCEP, 0.2 mM EDTA, and 0.005% Tween20 was dispensed to each assay plate. Test compounds were stored in dry, ambient temperatures at 10 mM. A 10-point, 1:3 dilution series was prepared from 10 mM stock concentrations in Echo-compatible LDV plates. 10 nL of each compound dilution series was dispensed into assays wells using an Echo 650 (Labcyte inc. USA). 10 nL of 10 mM lenalidomide (Selleckchem Cat no. S1029) was transferred into the active-control wells for the assay and 10 nL of DMSO was transferred into the negative control wells. The assay was then allowed to incubate for 30 min at ambient temperature after transferring the test compounds. Plate measurements were taken on a Pherastar FSX (BMG Labtech, Germany) using the HTRF Red filter (Ex. 337 nm, em1: 620 nm, em2: 665 nm) (Flashes: 50, Integration time: 60-400 μs, Z-height: 10 mm, Ratio-multiplier: 10,000). Analysis, HTRF ratio and IC50 values were derived using KNIME analytics (KNIME Zurich) transformation and fitting within Collaborative Drug Discovery (Collaborative Drug Discovery USA) using a 4-parameter logistic fit. HTRF ratio calculation was performed using the following formula: […]
where em665 nm represents the measured emission at 665 nm upon excitation at 337 nm and em620 nm the measured emission at 620 nm upon excitation at 337 nm. The 4 parameter logistic fitting model was performed using the following formula: […]
where Y represents the HTRF ratio response (as defined previously), X the compound concentration in μM, Ymin the minimum response plateau, Ymax the maximum response plateau, IC50 the concentration of […] that gives a response half way between Ymin and Ymax and HillSlope the steepness of the family of curves. No fitting model constraints was applied on Ymin, or Ymax whilst IC50>0 and −0.5>HillSlope>−3 Cheng-Prusoff transformation
Ki values were derived from the geometric mean of the IC50 values using the Cheng-Prusoff transformation:
where [L] represents the concentration of fluorescent probe in […], Kd the affinity (binding constant) of the fluorescent probe in units of μM and IC50 the concentration of agonist that gives a response halfway between Ymin and Ymax (as described in 1.2.1)
Analysis and IC50 values were derived using KNIME analytics (KNIME, Zurich) transformation and fitting within Collaborative Drug Discovery (Collaborative Drug Discovery, USA) as described in 1.2.1. Ki values were derived from the geometric mean of the IC50 values using the Cheng-Prusoff transformation as described in 2.2.2. Data was visualized in GraphPad Prism 8.1.2 (GraphPad, USA) and reported as mean and standard deviation. Microsoft Office Excel 2012 (Redmond, WA) was used for calculation of mean and standard deviation.
IC50 data are reported in Table 3 for compounds in Table 1. In Table 3 below, According to the code, A represents a IC50 value of ≤0.1 μM, B represents a IC50 value >0.1 μM and ≤1 μM, C represents an IC50 value >1 μM.

T1 sequence (P48729 whole entry): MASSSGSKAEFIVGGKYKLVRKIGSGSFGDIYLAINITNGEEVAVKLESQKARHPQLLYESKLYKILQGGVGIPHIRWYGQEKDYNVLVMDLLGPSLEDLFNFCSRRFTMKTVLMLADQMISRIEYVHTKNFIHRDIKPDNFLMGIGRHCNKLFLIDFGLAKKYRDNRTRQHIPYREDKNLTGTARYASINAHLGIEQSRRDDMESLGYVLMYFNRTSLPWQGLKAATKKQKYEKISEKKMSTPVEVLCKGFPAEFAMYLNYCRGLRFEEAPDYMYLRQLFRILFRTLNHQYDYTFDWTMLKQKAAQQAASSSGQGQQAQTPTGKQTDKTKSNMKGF
T1 sequence (Q96SW2 whole entry): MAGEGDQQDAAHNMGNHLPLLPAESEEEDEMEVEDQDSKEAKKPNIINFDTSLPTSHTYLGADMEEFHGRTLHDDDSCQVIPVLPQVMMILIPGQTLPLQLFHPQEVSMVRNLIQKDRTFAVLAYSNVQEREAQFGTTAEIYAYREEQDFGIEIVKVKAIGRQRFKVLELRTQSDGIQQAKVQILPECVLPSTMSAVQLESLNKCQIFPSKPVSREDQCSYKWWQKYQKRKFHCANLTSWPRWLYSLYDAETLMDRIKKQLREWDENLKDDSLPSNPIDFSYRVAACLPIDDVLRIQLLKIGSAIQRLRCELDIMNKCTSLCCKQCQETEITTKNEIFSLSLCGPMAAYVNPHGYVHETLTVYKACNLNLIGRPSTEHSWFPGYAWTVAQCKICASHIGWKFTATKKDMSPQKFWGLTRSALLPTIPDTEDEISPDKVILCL
T1 sequence (Q16531 whole entry partner): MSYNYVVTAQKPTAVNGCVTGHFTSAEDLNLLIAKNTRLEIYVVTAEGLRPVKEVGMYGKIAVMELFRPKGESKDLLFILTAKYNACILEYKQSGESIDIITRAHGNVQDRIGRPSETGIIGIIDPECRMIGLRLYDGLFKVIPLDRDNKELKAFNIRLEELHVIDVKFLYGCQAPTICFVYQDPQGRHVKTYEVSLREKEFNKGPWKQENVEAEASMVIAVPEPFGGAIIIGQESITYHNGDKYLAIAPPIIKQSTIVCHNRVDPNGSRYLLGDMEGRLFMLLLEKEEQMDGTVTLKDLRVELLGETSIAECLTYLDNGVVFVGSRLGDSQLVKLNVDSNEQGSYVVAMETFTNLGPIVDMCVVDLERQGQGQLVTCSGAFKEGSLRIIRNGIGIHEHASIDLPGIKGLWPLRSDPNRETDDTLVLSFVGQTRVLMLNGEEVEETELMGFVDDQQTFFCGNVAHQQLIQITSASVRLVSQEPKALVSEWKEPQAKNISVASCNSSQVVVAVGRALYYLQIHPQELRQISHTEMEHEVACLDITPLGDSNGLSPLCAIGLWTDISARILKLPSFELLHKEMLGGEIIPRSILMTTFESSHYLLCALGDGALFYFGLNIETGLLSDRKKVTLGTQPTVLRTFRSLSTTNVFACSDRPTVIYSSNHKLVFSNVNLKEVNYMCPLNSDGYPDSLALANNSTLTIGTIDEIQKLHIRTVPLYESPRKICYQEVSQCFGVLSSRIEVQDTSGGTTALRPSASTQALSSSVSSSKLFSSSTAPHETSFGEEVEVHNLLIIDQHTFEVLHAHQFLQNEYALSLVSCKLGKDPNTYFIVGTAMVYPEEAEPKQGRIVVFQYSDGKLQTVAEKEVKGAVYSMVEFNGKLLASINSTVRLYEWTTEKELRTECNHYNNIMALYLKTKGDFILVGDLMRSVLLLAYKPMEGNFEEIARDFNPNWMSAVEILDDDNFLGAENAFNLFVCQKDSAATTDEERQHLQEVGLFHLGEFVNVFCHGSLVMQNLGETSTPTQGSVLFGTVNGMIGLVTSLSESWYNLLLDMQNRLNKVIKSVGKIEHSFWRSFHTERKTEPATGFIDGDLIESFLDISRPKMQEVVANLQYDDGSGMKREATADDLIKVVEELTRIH
Chain of CRBN/DDB1 (Q96SW2 whole entry): as the sequence (Q96SW2 whole entry) above
Chain of CRBN/DDB1 (Q16531 whole entry partner): as the sequence (Q16531 whole entry partner) above

Row | SMILES | DC50 (CK1α) [µM] | IC50 (CRBN/DDB1) [µM]
1 | Cc1ccc(N2C(=O)N(c3ccc4c(c3)CN(C3CCC(=O)NC3=O)C4=O)CC2C)cn1 (stereo not drawn) [Compound 122, 3-(5-(4-methyl-3-(6-methylpyridin-3-yl)-2-oxoimidazolidin-1-yl)-1-oxoisoindolin-2-yl)piperidine-2,6-dione] | 0.1 to 1 | > 1
2 | Cc1ccc(N2C(=O)N(c3ccc4c(c3)CN(C3CCC(=O)NC3=O)C4=O)C[C@H]2C)cn1 (stereo partly drawn) [Compound 151, 3-(5-((R)-4-methyl-3-(6-methylpyridin-3-yl)-2-oxoimidazolidin-1-yl)-1-oxoisoindolin-2-yl)piperidine-2,6-dione] | ≤ 0.1 | 0.1 to 1
3 | O=C1CCC(N2Cc3cc(N4CCN(c5cccc6c5CCO6)C4=O)ccc3C2=O)C(=O)N1 (stereo not drawn) [Compound 140, 3-(5-(3-(2,3-dihydrobenzofuran-4-yl)-2-oxoimidazolidin-1-yl)-1-oxoisoindolin-2-yl)piperidine-2,6-dione] | ≤ 0.1 | 0.1 to 1
4 | COCc1cc(C)ccc1N1CCN(c2ccc3c(c2)CN(C2CCC(=O)NC2=O)C3=O)C1=O (stereo not drawn) [Compound 166, 3-(5-(3-(2-(methoxymethyl)-4-methylphenyl)-2-oxoimidazolidin-1-yl)-1-oxoisoindolin-2-yl)piperidine-2,6-dione] | 0.1 to 1 | 0.1 to 1
5 | CC(C)c1ccc(N2CCN(c3ccc4c(c3)CN(C3CCC(=O)NC3=O)C4=O)C2=O)cc1 (stereo not drawn) [Compound 120, 3-(5-(3-(4-isopropylphenyl)-2-oxoimidazolidin-1-yl)-1-oxoisoindolin-2-yl)piperidine-2,6-dione] | ≤ 0.1 | 0.1 to 1
6 | CN1CCN(c2cccc(N3CCN(c4ccc5c(c4)CN(C4CCC(=O)NC4=O)C5=O)C3=O)c2)CC1 (stereo not drawn) [Compound 165, 3-(5-(3-(3-(4-methylpiperazin-1-yl)phenyl)-2-oxoimidazolidin-1-yl)-1-oxoisoindolin-2-yl)piperidine-2,6-dione] | 0.1 to 1 | 0.1 to 1
7 | O=C1CCC(N2Cc3cc(N4CCN(c5cccc(Cl)c5)C4=O)ccc3C2=O)C(=O)N1 (stereo not drawn) [Compound 118, 3-(5-(3-(3-chlorophenyl)-2-oxoimidazolidin-1-yl)-1-oxoisoindolin-2-yl)piperidine-2,6-dione] | ≤ 0.1 | 0.1 to 1
8 | Cc1cc(N2CCN(c3ccc4c(c3)CN(C3CCC(=O)NC3=O)C4=O)C2=O)ccn1 (stereo not drawn) [Compound 103, 3-(5-(3-(2-methylpyridin-4-yl)-2-oxoimidazolidin-1-yl)-1-oxoisoindolin-2-yl)piperidine-2,6-dione] | > 1 | 
9 | O=C1CCC(N2Cc3cc(N4CCN(c5ccc(C6(C(F)(F)F)CC6)cc5)C4=O)ccc3C2=O)C(=O)N1 (stereo not drawn) [Compound 147, 3-(1-oxo-5-(2-oxo-3-(4-(1-(trifluoromethyl)cyclopropyl)phenyl)imidazolidin-1-yl)isoindolin-2-yl)piperidine-2,6-dione] | ≤ 0.1 | 

The next lines start with the values.

Row | DC50 (CK1α) [µM] | IC50 (CRBN/DDB1) [µM] | SMILES
10 | ≤ 0.1 | 0.1 to 1 | O=C1CCC(N2Cc3cc(N4CCN(c5ccc(C(F)F)cc5)C4=O)ccc3C2=O)C(=O)N1 (stereo not drawn) [Compound 129, 3-(5-(3-(4-(difluoromethyl)phenyl)-2-oxoimidazolidin-1-yl)-1-oxoisoindolin-2-yl)piperidine-2,6-dione]
11 | > 1 | > 1 | C[C@@H]1CN(c2ccc3c(c2)CN(C2CCC(=O)NC2=O)C3=O)C(=O)N1c1ccncn1 (stereo partly drawn) [Compound 180, 3-(5-((R)-4-methyl-2-oxo-3-(pyrimidin-4-yl)imidazolidin-1-yl)-1-oxoisoindolin-2-yl)piperidine-2,6-dione]
12 | ≤ 0.1 | 0.1 to 1 | Cc1ccc(N2C(=O)N(c3ccc4c(c3)CN(C3CCC(=O)NC3=O)C4=O)C[C@@H]2C)cc1 (stereo partly drawn) [Compound 145, 3-(5-((S)-4-methyl-2-oxo-3-(p-tolyl)imidazolidin-1-yl)-1-oxoisoindolin-2-yl)piperidine-2,6-dione]
13 | ≤ 0.1 | 0.1 to 1 | O=C1CCC(N2Cc3cc(N4CCN(c5ccc(C6COC6)cc5)C4=O)ccc3C2=O)C(=O)N1 (stereo not drawn) [Compound 146, 3-(5-(3-(4-(oxetan-3-yl)phenyl)-2-oxoimidazolidin-1-yl)-1-oxoisoindolin-2-yl)piperidine-2,6-dione]
14 | ≤ 0.1 | 0.1 to 1 | O=C1CCC(N2Cc3cc(N4CCN(c5ccc(C(F)(F)F)cc5)C4=O)ccc3C2=O)C(=O)N1 (stereo not drawn) [Compound 112, 3-(1-oxo-5-(2-oxo-3-(4-(trifluoromethyl)phenyl)imidazolidin-1-yl)isoindolin-2-yl)piperidine-2,6-dione]
15 | 0.1 to 1 | 0.1 to 1 | N#Cc1ccc(N2CCN(c3ccc4c(c3)CN(C3CCC(=O)NC3=O)C4=O)C2=O)cc1 (stereo not drawn) [Compound 115]
16 | > 1 | 0.1 to 1 | O=C1CCC(N2Cc3cc(N4CCN(C5CN(c6ccccn6)C5)C4=O)ccc3C2=O)C(=O)N1 (stereo not drawn) [Compound 184, 3-(1-oxo-5-(2-oxo-3-(1-(pyridin-2-yl)azetidin-3-yl)imidazolidin-1-yl)isoindolin-2-yl)piperidine-2,6-dione]
17 | 0.1 to 1 | 0.1 to 1 | O=C1CCC(N2Cc3cc(N4CCN(C5CC6(COC6)C5)C4=O)ccc3C2=O)C(=O)N1 (stereo not drawn) [Compound 171, 3-(1-oxo-5-(2-oxo-3-(2-oxaspiro[3.3]heptan-6-yl)imidazolidin-1-yl)isoindolin-2-yl)piperidine-2,6-dione]
18 | 0.1 to 1 | 0.1 to 1 | CC1CN(c2ccccc2)C(=O)N1c1ccc2c(c1)CN(C1CCC(=O)NC1=O)C2=O (stereo not drawn) [Compound 117, 3-(5-(5-methyl-2-oxo-3-phenylimidazolidin-1-yl)-1-oxoisoindolin-2-yl)piperidine-2,6-dione]
19 | ≤ 0.1 |  | N#Cc1cccc(N2CCN(c3ccc4c(c3)CN(C3CCC(=O)NC3=O)C4=O)C2=O)c1 (stereo not drawn) [Compound 148, 3-(3-(2-(2,6-dioxopiperidin-3-yl)-1-oxoisoindolin-5-yl)-2-oxoimidazolidin-1-yl)benzonitrile]
20 | ≤ 0.1 |  | Cc1ccc(N2CCN(c3ccc4c(c3)CN(C3CCC(=O)NC3=O)C4=O)C2=O)nc1 (stereo not drawn) [Compound 141, 3-(5-(3-(5-methylpyridin-2-yl)-2-oxoimidazolidin-1-yl)-1-oxoisoindolin-2-yl)piperidine-2,6-dione]
